Test results as given in patent US10918891B2, “Cosmetic treatment method for the skin” (SYNTIVIA, priority 2016, dated 2021).

How the values were obtained:
[1] = test system: NativeSkin® skin explants (Genoskin); experiment: Breaks in the DNA (γ-H2AX marking) of NativeSkin skin explant ex vivo after UVA irradiation; format: cell-based, human; details: composition 0.9 mmol/L topical, 60 J/cm^2 UVA every day for 3 days, n=10 images, FIG. 7
Description: (§1) The test was carried out on NativeSkin® skin explants (Genoskin), a biopsy of skin bathed in a solid, nourishing matrix while its epidermal surface is preserved in contact with the air. The biopsy is firmly anchored in the matrix and sealed in order to prevent any lateral diffusion of formulation intended for topical application.
(§2) The study was carried out on a donor (phototype 2) under the following conditions.
(§3) The compounds tested are implemented in a composition containing them at 0.9 mmol/L in a mixture of Carbopol® (0.5% p/p), DMSO (0.1% p/p) and H2O (qsp 100%).
(§4) The samples are irradiated at 60 J/cm^2 UVA every day for 3 days. A treatment is carried out for 24 h before the irradiation, by application of the composition tested onto the sample (deposition of 40 μl of composition onto the stratum corneum), then a post-treatment of 24 h after the irradiation, in the same manner.
(§5) A Control of the sample of skin non-irradiated and a Control of the sample of skin irradiated are also carried out, both with application of the vehicle alone (0.5% Carbopol®, 0.1% DMSO, H2O). The Control of the non-irradiated sample of skin is introduced into the irradiator in a sheet of aluminium, in such a way as to protect it against UVs.
(§6) The samples are sampled, cut (according to the conventional method of cryo-sectioning implementing paraffin and freezing) and fixed in 1 ml of formalin for 24 h.
(§7) The explants are then included in paraffin and sections of 5 μm are made.
The slides obtained are also marked by immunohistochemistry with the biomarker γ-H2Ax.
(§8) The analysis of the marking is carried out with a DM5000B fluorescence microscope (Leica Microsystems) and 10 images are acquired for each sample.
For the marking with γ-H2Ax, for each image, the total number of nuclei is detected with 4′,6-diamidino-2-phenylindole (dapi). In the same image, the number of nuclei having the marking is quantified. The ratio of the number of positive nuclei, multiplied by 100, to the number of total nuclei, is calculated, in order to obtain a percentage (=(positive nuclei*100)/total nuclei), n=10 per sample.
A statistical analysis is carried out with a student's test by comparing the samples to the control (p value[…], p value<0.05**, p value<0.005***, ns not significant).

[2] = test system: NativeSkin® skin explants (Genoskin); experiment: Histological analysis (haematoxylin/eosin) of NativeSkin skin explant ex vivo after UVA irradiation; format: cell-based, human; details: composition 0.9 mmol/L topical, 60 J/cm^2 UVA every day for 3 days, FIG. 5
Description: as §1, §2, §3, §4, §5, §6, §7
The slides are then coloured with haematoxylin (basic compound marking the nuclei) and eosin (acidic compound marking the conjunctive tissue).
as §8

NHEK cells = experiment: Survival (WST1) of NHEK keratinocytes exposed to cigarette extract, comparison with caffeic acid; format: cell-based, human; details: compound 10 ppm pretreatment 24 h and treatment 24 h, cigarette extract 1/50, cigarette extract alone 55% survival, FIG. 4
Description: This study aims to compare the protective or repairing effect of the compounds according to the invention (Ia) and (Ib) with respect to the damage induced on the skin by a cigarette extract. For comparison, caffeic acid (supplier: Acros) is also tested. This acid forms a basic unit of the compounds (Ia) and (Ib) according to the invention.
The NHEK cells are inoculated in a 96-well plate in a suitable medium (Promocell), at a rate of 9000 cells per well, and incubated 24 h at 37° C. and 5% carbon dioxide.
The compounds to be tested are prepared as follows: • (Ia): 10 mg of compound+909 μL of DMSO • (Ib): 7 mg of compound+636 μL of DMSO • caffeic acid: 10 mg of compound+909 μL of DMSO
Each stock solution above is diluted 1000 times, to 10 ppm in the culture medium, then the solutions obtained are filtered by means of a nylon filter (0.22 μm). The final solutions are concentrated to 10 ppm in 0.1% DMSO.
Solutions at 20 ppm in 0.2% DMSO are also prepared in a similar manner, for dilution in the cigarette extract.
An extract of 20 cigarettes is prepared as indicated in example 14 above. This extract is then diluted to 1/50 in the culture medium; or to 2/50 in the culture medium, then to 1/2 in the culture medium, to which the compound to be tested is added at 20 ppm.
The cells are pretreated for 24 h with the compound to be tested at 10 ppm in the culture medium.
The cells are then treated with the cigarette extract diluted to 1/50th with or without the compound tested at 10 ppm for 24 h.
3 h before the end of the test, 10 μl of WST1 cellular proliferation reactant (Roche) are added into each well. The absorbance at 450 nm is measured before and after the addition of WST1 reactant, by means of a Multiskan® reader. The treated cells are compared to the untreated cells and to the cells exposed to the cigarette extract.

IL-8 = IL-8 assay (ELISA) in culture supernatants of NHEK after induction with IL-1β; format: cell-based, human; details: IL-1β 10 ng/ml 24 h, then substance 24 h, compound (Ia) 3 ppm, dexamethasone 0.4 ppm, CTL 0.23, CTL without IL-1β 0.06
Description: This study is carried out on normal human Keratinocytes (NHEK).
In this example, the anti-inflammatory properties of the compound (Ia) are evaluated by the assay of the IL-8, after the application of the cytokine IL-1β at 10 ng/ml onto NHEKs. IL-8 is a major inflammatory cytokine produced first of all during the inflammatory response of the keratinocytes. The quantification of the IL-8 in the culture supernatants allows an evaluation of the inflammatory state of the cells.
The IL-1β is added to the culture medium of the NHEKs at a rate of 10 ng/ml for 24 h. After incubation, the culture media are removed and replaced with culture media containing the compound (Ia) at 3 ppm. After 24 h of incubation, the supernatants are collected.
The reference anti-inflammatory element is dexamethasone (Sigma) used at 0.4 ppm. A control having undergone the same experimental conditions without the compound (Ia) (CTL), as well as a non-induced control (CTL without IL-1β), are also carried out.
The quantification of the IL-8 in 50 μl of the culture supernatants is measured by an ELISA test (human CXCL8/IL-8 Immunoassay, R&D Systems).
Each treatment is carried out in triplicate.

[3] = test system: normal human Keratinocytes (NHEK); experiment: Reactive oxygen species (H2DCFDA probe) in NHEK after single UVA stress; format: cell-based; details: 24 h incubation; (Ia) 3 ppm, Trolox 20 ppm, Quercetin 18 ppm; UVA 10 J/cm2; normalised to viability (MTS); CTL UVA 289687.6, CTL without stress 16441.9
Description: The cells used for this example are normal human Keratinocytes (NHEK).
The antioxidant properties (neutralising the production of reactive oxygen species) of the compound (Ia) are evaluated after a single stress with UVAs on NHEKs, by a test based on the use of the fluorescent probe H2DCFDA on a triple culture.
H2DCFDA (2′-7′dichlorodihydrofluorescein diacetate, Fischer Scientific) is a probe that, after having diffused into the cell and after its acetate group has been split by intracellular esterases, can be oxidised by free radicals (H2O2) into DCF (2′-7′ dichlorofluorescein), a fluorescent compound. The production of the free radicals can thus be quantified by the level of fluorescence emitted by the oxidised probe. The more the cell produces free radicals, the higher the level of fluorescence detected.
After 24 hours of incubation with the compound (Ia) (3 ppm in an aqueous solution with 0.1% dimethylsulfoxide) or the reference elements, the cells are placed in the presence of the H2DCFDA probe at 3 ppm for 1 hour at 37° C., 5% CO2 in order to allow its intracellular diffusion.
The reference antioxidant elements are: Trolox ([…], Sigma), at 20 ppm and Quercetin (quercetin dihydrate, Sigma), at 18 ppm.
After one rinsing, the cells are subjected to a single stress with UVAs (in the absence of compound (Ia)) at a rate of 10 joules per square centimetre. The quantification of the fluorescence emitted (excitation: 485 nm; emission: 520 nm) is carried out immediately after the end of the UVA stress. […]
In order to provide a result representative of the cellular population of each condition after a single stress with UVAs, a cellular viability test (MTS) is carried out immediately after the quantification of the fluorescence emitted. The fluorescence values are thus normalised with respect to the cellular viabilities in order for it to be possible to compare the levels of fluorescence of the various conditions to each other.

| SMILES | percentage of nuclei positive for marking with γ-H2AX, compared with controls [1] | Morphology of the epidermis after UVA irradiation (histological analysis) [2] | % survival of the cells (NHEK cells) [%] | Quantification of the IL8 (optical density) (IL-8) | Assay of the fluorescence with H2DCFDA after irradiation of NHEKs with UVAs [3] |
| --- | --- | --- | --- | --- | --- |
| Cc1ncc(CO)c(CNC(=O)CCCC[C@@H]2CCSS2)c1O [Comp.1, reference compound] | level similar to the irradiated sample | phenotype of the irradiated sample is also found |  |  |  |
| COc1cc(/C=C/C(=O)NCc2c(CO)cnc(C)c2O)ccc1O [Compound (Ib), (E)-3-(4-hydroxy-3-methoxyphenyl)-N-((3-hydroxy-5-(hydroxymethyl)-2-methylpyridin-4-yl)-methyl)-acrylamide] |  |  | 76 |  |  |
| COc1ccc(/C=C/C(=O)NCc2c(CO)cnc(C)c2O)cc1O [Compound (Ic), (E)-3-(3-hydroxy-4-methoxyphenyl)-N-((3-hydroxy-5-(hydroxymethyl)-2-methylpyridin-4-yl)-methyl)-acrylamide] | same phenotype as the non-irradiated control sample | totally protected |  |  |  |
| Cc1ncc(CO)c(CNC(=O)/C=C/c2ccc(O)cc2)c1O [Compound (Id), (E)-N-((3-hydroxy-5-(hydroxymethyl)-2-methylpyridin-4-yl)-methyl)-3-(4-hydroxyphenyl)-acrylamide] | clearly reduced with respect to the irradiated control sample | partly protected |  |  |  |
| C[C@@H]1C[C@H]2[C@@H]3CCC4=CC(=O)C=C[C@]4(C)[C@@]3(F)[C@@H](O)C[C@]2(C)[C@@]1(O)C(=O)CO [Dexamethasone, dexamethasone, reference compound] |  |  |  | 0.13 |  |
| O.O.O=c1c(O)c(-c2ccc(O)c(O)c2)oc2cc(O)cc(O)c12 [Quercetin, quercetin dihydrate, reference compound] |  |  |  |  | 207589.6 |
| O=C(O)/C=C/c1ccc(O)c(O)c1 [caffeic acid, reference compound] | level similar to the irradiated sample | phenotype of the irradiated sample is also found | 73 |  |  |
| Cc1ncc(CO)c(CN)c1O [pyridoxamine, reference compound] | level similar to the irradiated sample | phenotype of the irradiated sample is also found |  |  |  |
